As a reminder, the IC50 is the concentration that inhibits the measured activity by half.

SMILES strings stand for the structures.

For the assay, the target named is T1, BTK enzyme (recombinant full-length BTK, hBTK) (Homo sapiens, UniProt Q06187).
T1 construct: recombinant protein from baculovirus-transfected Sf9 cells: full-length BTK, 6HIS-tag cleaved; 6HIS (cleaved yes); made in house; host or cells: baculovirus-transfected Sf9 cells
T1 sequence (Q06187 whole entry): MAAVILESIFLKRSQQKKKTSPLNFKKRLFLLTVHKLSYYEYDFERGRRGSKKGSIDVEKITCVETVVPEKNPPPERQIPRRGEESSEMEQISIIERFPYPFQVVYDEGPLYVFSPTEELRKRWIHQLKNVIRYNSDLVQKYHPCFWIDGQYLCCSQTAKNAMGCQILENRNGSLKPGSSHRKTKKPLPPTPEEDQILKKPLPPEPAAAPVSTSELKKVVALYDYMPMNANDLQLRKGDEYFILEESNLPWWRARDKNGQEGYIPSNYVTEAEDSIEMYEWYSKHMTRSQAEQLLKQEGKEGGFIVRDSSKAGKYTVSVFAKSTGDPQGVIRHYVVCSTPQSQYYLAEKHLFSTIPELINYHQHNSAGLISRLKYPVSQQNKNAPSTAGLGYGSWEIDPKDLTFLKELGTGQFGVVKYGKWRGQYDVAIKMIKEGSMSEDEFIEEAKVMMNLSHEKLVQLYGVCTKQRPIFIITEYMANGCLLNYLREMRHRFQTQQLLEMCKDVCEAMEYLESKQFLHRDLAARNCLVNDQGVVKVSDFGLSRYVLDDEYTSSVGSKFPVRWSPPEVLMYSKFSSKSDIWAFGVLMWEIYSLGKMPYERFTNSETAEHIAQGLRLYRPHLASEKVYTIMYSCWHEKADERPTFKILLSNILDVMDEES
Nature of the assay: Btk enzyme activity assay, LANCE TR-FRET. In kind it is biochemical. As to conditions: 50 pM hBTK, 2 μM biotin-A5-peptide, 25 μM ATP; 60 minute compound & enzyme incubation; 120 minutes reaction; read-out: BTK binding potency IC50.
`COC(=O)CCN1CCCC2(CCCN(c3ncc(C(N)=O)c4[nH]c5ccccc5c34)C2)C1=O` (centres unmarked) [Example 31, methyl 3-[8-(4-carbamoyl-5H-pyrido[4,3-b]indol-1-yl)-1-oxo-2,8-diazaspiro[5.5]undec-2-yl]propanoate]: the IC50 turned out to be 96.8 nM. Consider `NC(=O)c1cnc(N2CCCC3(CCNC3=O)C2)c2c1[nH]c1cc(C3CCCNC3)ccc12` (centres unmarked) [Example 44, 1-(1-oxo-2,7-diazaspiro[4.5]dec-7-yl)-7-piperidin-3-yl-5H-pyrido[4,3-b]indole-4-carboxamide], for which the IC50 was 1.6 nM. Turning to `CN1CC(CO)C2(CCCN(c3ncc(C(N)=O)c4[nH]c5ccccc5c34)C2)C1=O` (single isomer, unassigned) [Example 91, cis-1-(4-(hydroxymethyl)-2-methyl-1-oxo-2,7-diazaspiro[4.5]decan-7-yl)-5H-pyrido[4,3-b]indole-4-carboxamide], the half-inhibitory concentration (IC50) was 1000 nM.

Regarding `NC(=O)c1cnc(N2CCC[C@@]3(CCCN(c4ccc(F)cc4)C3=O)C2)c2c1[nH]c1ccc(C(=O)O)cc12` [Example 8, 4-carbamoyl-1-[(6R)-8-(4-fluorophenyl)-7-oxo-2,8-diazaspiro[5.5]undec-2-yl]-5H-pyrido[4,3-b]indole-8-carboxylic acid], the IC50 is 12.6 nM. Under `NC(=O)c1cnc(N2CCC[C@]3(CCCN(c4ccc(F)cc4)C3=O)C2)c2c1[nH]c1ccc(F)cc12` [Example 7, 8-fluoro-1-[(6S)-8-(4-fluorophenyl)-7-oxo-2,8-diazaspiro[5.5]undec-2-yl]-5H-pyrido[4,3-b]indole-4-carboxamide] stands 34.2 nM.

The record behind these values is patent US20180141962A1, “AZACARBAZOLE BTK INHIBITORS” (MERCK SHARP & DOHME CORP., priority 2015, published 2018).
